Measurements taken from patent US20050090522A1 (priority 2001, published 2005).

Each compound was assayed on HIV-1 (assay: HIV-1 single-round infectious luciferase reporter virus (pseudotype) assay in HeLa CD4 CCR5 cells). Details: Human immunodeficiency virus 1, HeLa-CD4/CCR5, read-out: EC50 Group from TABLE 1, HeLa CD4 CCR5 cells, single-round infectious luciferase reporter virus.
Assay type: cell-based
Protocol: • Virus production—Human embryonic Kidney cell line, 293, propagated in Dulbecco's Modified Eagle Medium (Life Technologies, Gaithersburg, Md.) containing 10% fetal Bovine serum (FBS, Sigma, St. Louis, Mo.). • Virus infection—Human epithelial cell line, HeLa, expressing the HIV-1 receptors CD4 and CCR^5 was propagated in Dulbecco's Modified Eagle Medium (Life Technologies, Gaithersburg, Md.) containing 10% fetal Bovine serum (FBS, Sigma, St. Louis, Mo.) and supplemented with 0.2 mg/mL Geneticin (Life Technologies, Gaithersburg, Md.) and 0.4 mg/mL Zeocin (Invitrogen, Carlsbad, Calif.). […] Transfections were performed using lipofectAMINE PLUS reagent as described by the manufacturer (Life Technologies, Gaithersburg, Md.). Experiment • 1. Compound was added to HeLa CD4 CCR5 cells plated in 96 well plates at a cell density of 5×10^4 cells per well in 100 μl Dulbecco's Modified Eagle Medium containing 10% fetal Bovine serum at a concentration of […]. • 2. 100 μl of single-round infectious reporter virus in Dulbecco's Modified Eagle Medium was then added to the plated cells and compound at an approximate multiplicity of infection (MOI) of 0.01, resulting in a final volume of 200 μl per well and a final compound concentration of <10 μM. • 3. Samples were harvested 72 h after infection. • 4. Viral infection was monitored by measuring luciferase expression from viral DNA in the infected cells using a luciferase reporter gene assay kit (Roche Molecular Biochemicals, Indianapolis, Ind.). Infected cell supernatants were removed and 50 μl of Dulbecco's Modified Eagle Medium (without phenol red) and 50 μl of luciferase assay reagent reconstituted as described by the manufacturer (Roche Molecular Biochemicals, Indianapolis, Ind.) was added per well. Luciferase activity was then quantified by measuring luminescence using a Wallac microbeta scintillation counter. • 5. […] An EC50 provides a method for comparing the antiviral potency of the compounds of this invention. The effective concentration for fifty percent inhibition (EC50) was calculated with the Microsoft Excel Xlfit curve fitting software. For each compound, curves were generated from percent inhibition calculated at 10 different concentrations by using a four paramenter logistic model (model 205). Table 1 is the key for the data in Tables 2-4. Cytoxicity assays were conducted with the same HeLa using methodology well known in the art.
In Table 5, X2, X4 etc. indicates the point of attachment. […] The data at 10 μM was calculated in the following manner:
For compounds tested at concentrations less than 10 μM, the percent inhibition at 10 μM was determined by extrapolation using the XLfit curve fitting feature of the Microsoft Excel spreadsheet software. Curves were obtained from 10 data points (% inhibition determined at 10 concentrations of compound) by using a four parameter logistic model (XLfit model 205: y=A+((B−A)/(I+((C/x)^D))), where, A=minimum y, B=maximum y, C=logEC50, D=slope factor, and x and y are known data values. Extrapolations were performed with the A and B parameters unlocked. […]
`CCN(CC)CCN(C)c1cnc(-c2ncc(OC)c3c(C(=O)C(=O)N4CCN(C(=O)c5ccccc5)CC4)c[nH]c23)cn1` [Example 175, 1-benzoyl-4-[(4-methoxy-7-(2-(N-diethylaminoethyl-N-methyl)aminopyrazin-S-yl)-6-azaindol-3-yl)-oxoacetyl]piperazine] showed an EC50 of less than 1000 nM.
With `O=C(C(=O)N1CCN(C(=O)c2ccccc2)CC1)c1c[nH]c2c(-c3nccs3)nccc12` [Example 21, 1-benzoyl-4-[(7-(thiazol-2-yl)-6-azaindol-3-yl)-oxoacetyl]piperazine] the EC50 was less than 1000 nM.
Compound `COc1cnc(-c2cnc(N(C)C)cn2)c2[nH]cc(C(=O)C(=O)N3CCN(C(=O)c4ccccn4)CC3)c12` [Example 103, 1-picolinoyl-4-[(4-methoxy-7-(2-dimethylamino-pyrazin-5-yl)-6-azaindol-3-yl)-oxoacetyl]piperazine] has an EC50 of less than 1000 nM.
Compound `CC(C)Cc1ncc(-c2nccc3c(C(=O)C(=O)N4CCN(C(=O)c5ccccc5)CC4)c[nH]c23)s1` [Example 89, 1-benzoyl-4-[(7-(2-isobutyl-thiazol-5-yl)-6-azaindol-3-yl)-oxoacetyl]piperazine] has an EC50 of less than 1000 nM.
`COc1cnc(-c2ccncc2)c2[nH]cc(C(=O)C(=O)N3CCN(C(=O)c4ccccc4)CC3)c12` [Example 14, 1-benzoyl-4-[(4-methoxy-7-(pyridin-4-yl)-6-azaindol-3-yl)-oxoacetyl]piperazine] gave an EC50 of less than 1000 nM.
`COc1cnc(-c2cnc(C(N)=O)cn2)c2[nH]cc(C(=O)C(=O)N3CCN(C(=O)c4ccccc4)CC3)c12` [Example 55, 1-benzoyl-4-[(4-methoxy-7-(2-aminocarbonyl-pyrazin-5-yl)-6-azaindol-3-yl)-oxoacetyl]piperazine] showed an EC50 of less than 1000 nM.
For `C[C@@H]1CN(C(=O)c2ccccn2)CCN1C(=O)C(=O)c1c[nH]c2c(-c3cnccn3)ncc(F)c12` [Example 141], the EC50 was less than 1000 nM.
With `COc1cnc(-c2ccnnc2)c2[nH]cc(C(=O)C(=O)N3CCN(C(=O)c4ccccc4)CC3)c12` [Example 23, l-benzoyl-4-[(4-methoxy-7-(pyridazin-4-yl)-6-azaindol-3-yl)-oxoacetyl]piperazine] the EC50 was less than 1000 nM.
`O=C(C(=O)N1CCN(C(=O)c2ccccc2)CC1)c1c[nH]c2c(-c3ccc(Cl)cc3)nccc12` [Example 2, 1-benzoyl-4-[(7-(4-chlorophenyl)-6-azaindol-3-yl)-oxoacetyl]piperazine] showed an EC50 of less than 1000 nM.
With `C[C@@H]1CN(C(=O)c2ccccc2)CCN1C(=O)C(=O)c1c[nH]c2c(-c3cncc(N)n3)nccc12` [Example 111, (R)-1-benzoyl-3-methyl-4-[(7-(2-amino-pyrazin-6-yl)-6-azaindol-3-yl)-oxoacetyl]piperazine] the EC50 was less than 1000 nM.
Compound `Nc1cnc(-c2ncc(Cl)c3c(C(=O)C(=O)N4CCN(C(=O)c5ccccc5)CC4)c[nH]c23)cn1` [Example 143] has an EC50 of less than 1000 nM.
For `COc1cnc(-n2ccc(CC(C)O)n2)c2[nH]cc(C(=O)C(=O)N3CCN(C(=O)c4ccccc4)CC3)c12` (stereo not shown) [Example 277, 1-benzoyl-4-[(4-methoxy-7-(3-(2-hydroxylpropyl)-pyrazol-1-yl)-6-azaindol-3-yl)-oxoacetyl]piperazine], the EC50 was less than 1000 nM.
Work on `COc1cnc(-c2ccc3[nH]ccc3c2)c2[nH]cc(C(=O)C(=O)N3CCN(C(=O)c4ccccn4)CC3)c12` [Example 172, 1-picolinoyl-4-[(4-methoxy-7-(indol-5-yl)-6-azaindol-3-yl)-oxoacetyl]piperazine] yielded an EC50 of less than 1000 nM.
Work on `COc1cnc(-n2ccc(-c3ccc(C(F)(F)F)cc3)n2)c2[nH]cc(C(=O)C(=O)N3CCN(C(=O)c4ccccc4)CC3)c12` [Example 288, 1-benzoyl-4-[(4-methoxy-7-(3-(4-trifluoromethyl-phenyl)-pyrazol-1-yl)-6-azaindol-3-yl)-oxoacetyl]piperazine] yielded an EC50 of less than 1000 nM.
Work on `COc1cnc(-c2cnc(NS(C)(=O)=O)cn2)c2[nH]cc(C(=O)C(=O)N3CCN(C(=O)c4ccccc4)CC3)c12` [Example 47] yielded an EC50 of less than 1000 nM.
`C[C@@H]1CN(C(=O)c2ccccc2)CCN1C(=O)C(=O)c1c[nH]c2c(-c3cnccn3)nccc12` [Example 33, 1-benzoyl-3-(R)-methyl-4-[(7-(pyrazin-2-yl)-6-azaindol-3-yl)-oxoacetyl]piperazine] showed an EC50 of less than 1000 nM.
In the case of `COc1cnc(-c2cnc(N3CCNCC3)cn2)c2[nH]cc(C(=O)C(=O)N3CCN(C(=O)c4ccccc4)CC3)c12` [Example 177, 1-benzoyl-4-[(4-methoxy-7-(2-(N-piperazinyl)-pyrazin-5-yl)-6-azaindol-3-yl)-oxoacetyl]piperazine], the EC50 is reported as less than 1000 nM.
Compound `O=C(C(=O)N1CCN(C(=O)c2ccccc2)CC1)c1c[nH]c2c(-c3ccccn3)nccc12` [Example 19, 1-benzoyl-4-[(7-(pyridin-2-yl)-6-azaindol-3-yl)-oxoacetyl]piperazine] has an EC50 of less than 1000 nM.
Work on `COc1cnc(-c2cnc(C(=O)NC(C)(C)C)cn2)c2[nH]cc(C(=O)C(=O)N3CCN(C(=O)c4ccccc4)CC3)c12` [Example 15, 1-benzoyl-4-[(4-methoxy-7-(2-(1,1-dimethylethylaminocarbonyl)-pyrazin-5-yl)-6-azaindol-3-yl)-oxoacetyl]piperazine] yielded an EC50 of less than 1000 nM.
Compound `COc1cnc(-c2cnccn2)c2[nH]cc(C(=O)C(=O)N3CCN(C(=O)c4ccccc4)CC3)c12` [Example 32, 1-benzoyl-4-[(4-methoxy-7-(pyrazin-2-yl)-6-azaindol-3-yl)-oxoacetyl]piperazine] has an EC50 of less than 1000 nM.
In the case of `COc1cnc(-c2cnc(C3CC3)cn2)c2[nH]cc(C(=O)C(=O)N3CCN(C(=O)c4ccccn4)CC3)c12` [Example 181, 1-picolinoyl-4-[(4-methoxy-7-(2-cyclopropanyl-pyrazin-5-yl)-6-azaindol-3-yl)-oxoacetyl]piperazine], the EC50 is reported as less than 1000 nM.

Same assay, conditions: Human immunodeficiency virus 1, HeLa-CD4/CCR5, read-out: EC50 Group from Table 1, Table 2-1; HeLa CD4 CCR5 cells, single-round luciferase reporter virus
Work on `COc1cnc(-c2nc(-c3ccc(C)cc3)n[nH]2)c2[nH]cc(C(=O)C(=O)N3CCN(C(=O)c4ccccc4)[C@H](C)C3)c12` [Example 337] yielded an EC50 of less than 1000 nM.
In the case of `COc1cnc(-n2ccc(CCC(=O)O)n2)c2[nH]cc(C(=O)C(=O)N3CCN(C(=O)c4ccccc4)[C@H](C)C3)c12` [Example 234, (R)-1-benzoyl-2-methyl-4-[(4-methoxy-7-(3-(2-hydroxylcarbonylethan-1-yl)-pyrazol-1-yl)-6-azaindol-3-yl)-oxoacetyl]piperazine], the EC50 is reported as less than 1000 nM.
`COc1cnc(-n2cc(CO)cn2)c2[nH]cc(C(=O)C(=O)N3CCN(C(=O)c4ccccc4)C[C@H]3C)c12` [Example 237, (R)-1-benzoyl-3-methyl-4-[(4-methoxy-7-(4-hydroxylmethyl-pyrazol-1-yl)-6-azaindol-3-yl)-oxoacetyl]piperazine] gave an EC50 of less than 1000 nM.
Compound `COc1cnc(-c2nc(-c3cccnc3)n[nH]2)c2[nH]cc(C(=O)C(=O)N3CCN(C(=O)c4ccccc4)[C@H](C)C3)c12` [Example 338] has an EC50 of less than 1000 nM.

Same assay, conditions: Human immunodeficiency virus 1, HeLa-CD4/CCR5, read-out: EC50 Group from Table 1, Table 4; HeLa CD4 CCR5 cells, single-round luciferase reporter virus
`O=C(C(=O)N1CCN(C(=O)c2ccccc2)CC1)c1c[nH]c2c(-c3nccs3)ccnc12` [Example 131] was tested, and the EC50 was less than 1000 nM.
`CC(=O)c1ccc(-c2ccnc3c(C(=O)C(=O)N4CCN(C(=O)c5ccccc5)CC4)c[nH]c23)s1` [Example 132] showed an EC50 of less than 1000 nM.
Work on `CCOC(=O)c1cc(-c2ccnc3c(C(=O)C(=O)N4CCN(C(=O)c5ccccc5)CC4)c[nH]c23)n[nH]1` [Example 202, 5-{3-[2-(4-Benzoyl-piperazin-1-yl)-2-oxo-acetyl]-1H-pyrrolo[3,2-b]pyridin-7-yl}-2H-pyrazole-3-carboxylic acid ethyl ester] yielded an EC50 of less than 1000 nM.
In the case of `C[C@@H]1CN(C(=O)c2ccccc2)CCN1C(=O)C(=O)c1c[nH]c2c(-c3cncnc3)ccnc12` [Example 51, 1-benzoyl-3-(R)-methyl-4-[(7-(pyrimidin-5-yl)-4-azaindol-3-yl)-oxoacetyl]piperazine], the EC50 is reported as less than 1000 nM.
Compound `C[C@@H]1CN(C(=O)c2ccccc2)CCN1C(=O)C(=O)c1c[nH]c2c(-c3nccs3)ccnc12` [Example 53, 1-benzoyl-3-(R)-methyl-4-[(7-(thiazol-2-yl)-4-azaindol-3-yl)-oxoacetyl]piperazine] has an EC50 of less than 1000 nM.
Work on `C[C@@H]1CN(C(=O)c2ccccc2)CCN1C(=O)C(=O)c1c[nH]c2c(-c3cc4ccccc4s3)ccnc12` [Example 127] yielded an EC50 of less than 1000 nM.
